From patent US10183026B2, “Method of adjuvant treatment with chlorophyllin containing therapeutic preparation including for radioprotection of normal tissues during radiation therapy and kit therefor” (priority 2016, dated 2019)

Columns and labels:
[1] = system: MCF7 human breast cancer cells; test: Cancer stem cell frequency (Aldefluor, CD24-CD44+, Hoechst side population), MCF7; type: cell-based; conditions: 4 Gy or 8 Gy
Description: (§1) For cancer stem cell analysis, by Aldefluor assay, MCF7 cells and MDA MB231 cells were stained with either Aldefluor reagent or PE-[…], APC-Cy7CD44, antibodies for 20 min on ice. The cells were washed and fixed with 1% paraformaldehyde for 20 min and stained with Hoechst 33342 (10 mg/ml) for 4 h. Isotype controls stained cells, single antibody stained cells, and fluorescence minus one (FMO) controls were used for compensation and gating. The cells were acquired on a flow Cytometer (Partec Cyflow) and analysed using FlowJo 7.6.5 (Treestar, Inc., Ashland) software.

[2] = system: MCF7 human breast cancer cells; test: γH2AX foci formation assay, MCF7; type: cell-based; conditions: 50 μM
Description: (§2) A549 cells and MCF (3×10^5 cells) were grown on the coverslip, treated with 50 μM of chlorophyllin, followed by 4 Gy radiation exposure. At different time intervals after irradiation (either 15 min or 120 min), cells were fixed with 4% paraformaldehyde, permeabilized using Triton X-100, blocked with 5% bovine serum albumin and then treated with anti-γ-H2AX antibody. Then cells were stained with FITC labeled secondary antibody and visualized using fluorescence microscope. The average number of foci per cell was calculated after counting the foci from 100 cells per group.

rats = test: Acute oral toxicity in rats; type: in vivo; conditions: up to an acute oral dose of 5 gm per Kg body weight
[3] = system: mice exposed to whole body irradiation; test: Protection against whole body irradiation induced mortality (30 days survival); type: in vivo, BALB/c mice; conditions: 100 mg/kg bw, Intra peritoneal, 7.0 Gy
[4] = system: MCF-7 human breast cancer cells; test: Mitotic catastrophe, Hoechst stained nuclei; type: cell-based
Description: MCF-7 cells (3×10^5 cells) were grown on the coverslip, treated with indicated concentrations of chlorophyllin (0, 10, 20, 50 or 100 μM) and exposed for 48 hrs to indicated doses of radiation (4 Gy and 8 Gy). After irradiation cells were fixed and stained with Hoechst and observed under fluorescence microscope. Cells with mitotic abnormalities have been counted for each group.

G-CSF = test: Serum levels of G-CSF as a function of time; type: in vivo, mice; conditions: 500 mg/Kg bw orally for 3 days; 2, 24, 48 and 72 hrs
Description: (§3) CHL formulation dose and duration: 500 mg/Kg bw given orally for 3 consecutive days.

normal lung epithelia = test: Gamma radiation (4 Gy)-induced injury to lung epithelial cells (cellular atypia); type: in vivo
[5] = system: MCF-7 human breast cancer xenograft tumors; test: In vivo radiosensitization of human breast cancer xenograft in SCID mice
Description: MCF-7 cells (10×10^6 in 50 μl 1×PBS and 50 μl matrigel) were injected subcutaneously in foot pad of each mouse and tumors were monitored till they developed to measurable size. Mice were then treated with 500 mg/Kg bw chlorophyllin in PBS orally for three consecutive days. After last dose administration mice were locally exposed to IR 6 Gy (at the site of tumor) and subsequently monitored for 30 days for tumor growth and survival. Measurements of tumor were taken on alternate days using digital Vernier caliper and tumor volume was recorded. At the end of 30 days tumour mass was excised for further analysis.

[6] = system: MDA-MB 231 triple negative breast cancer cells; test: Cancer stem cell frequency (CD24-CD44+, Hoechst side population), MDA-MB231; type: cell-based, human; conditions: 50 μM, 4 Gy or 8 Gy
Description: as §1

[7] = system: lineage negative cells in the bone marrow; test: Cell cycle of lineage negative cells in the bone marrow; type: in vivo, mice; conditions: specified dose
bone marrow cells = test: Colony forming units in bone marrow cells of whole body irradiated mice; type: cell-based; conditions: bone marrow cells in vitro
[8] = Pharmacokinetic study, serum half-life; type: in vivo; conditions: mice
[9] = system: MCF7 human breast cancer cells; test: Clonogenic survival assay, MCF7; type: cell-based
Description: (§4) A549 and MCF 7 cells (2000 cells for control, 4 Gy and 5000 cells for 8 Gy treatments) were plated overnight in 6 well plates followed by treatment with indicated concentrations of chlorophyllin (0, 10, 20, 50 or 100 μM) for 2 h and exposed to indicated doses of radiation. After radiation exposure plates were incubated at 37° C. in CO2 incubator for 12 days for the development of colonies. After the colony formation, the plates were washed with PBS, fixed with methanol and stained with crystal violet. The colonies with more than 50 cells were counted and the survival fraction was calculated using the following formula: Survival fraction=No. of colonies/[no. of cells plated X (plating efficiency/100)], where plating efficiency is the ratio between the number of colonies developed to the number of cells plated in control.

[10] = system: A549 human lung cancer cells; test: γH2AX foci formation assay, A549; type: cell-based; conditions: 50 μM
Description: as §2

[11] = system: hematopoietic stem cells in the bone marrow; test: Hoechst side population assay of bone marrow; type: in vivo, BALB/c mice; conditions: 500 mg/Kg bw orally for 3 consecutive days
Description: 8- to 9 weeks-old inbred BALB/c male mice, weighing approximately 20-25 g, were grouped into untreated control and CHL treated groups.
as §3
Side population analysis: The femur bones the above mentioned mice were dissected and the marrow was flushed out into cold Iscove's Modified Dulbecco's Medium (IMDM), 2% FBS using a 21-gauge needle. Nucleated cells were counted using Hemocytometer and trypan blue dye exclusion. Three million cells from each mouse were resuspended in pre-warmed (37° C.) DMEM without phenol red. Hoechst 33342 ([…]) was added and cells were incubated at 37° C. for 90 min with intermittent shaking. At the end of incubation, cells were washed with DMEM without phenol red and kept on ice and acquired on a flow cytometer within 2 h. Verapamil (100 μM concentration) treated bone marrow cells were used to identify the Hoechst side population in this assay.
Verapamil dose: 100 μM final concentration

mice = test: Acute oral toxicity in mice; type: in vivo; conditions: up to an acute oral dose of 5 gm per Kg body weight
Gr-1+ granulocytes = test: Frequency of Gr-1+ granulocytes in bone marrow and blood; type: in vivo, mice
Description: Percent granulocytes are a biological marker for efficacy of chlorophyllin as a radioprotector in vivo. […] This is the preferred dose range. Although percentage of granulocytes increases at doses 720 and 900 mg/kg body weight, these doses are not preferred to be translated to humans. (FIG. 1E)

MCF-7 cells = test: Reactive oxygen species by DCFDA, DHE, DHR123 fluorescence; type: cell-based, human; conditions: 50 μM
Description: MCF-7 cells (1×10^5) were stained with H2DCF-DA (10 μM) Ex./Em. 485/535 nm or dihydroethidium (DHE 5 μM) 518/605 nm or DHR 123 (5 μM) 500/536 nm for 20 min and incubated with chlorophyllin (50 μM) or vehicle for indicated time intervals at 37° C. Cells were exposed to 4 Gy IR and fluorescence was monitored at respective wavelengths using BioTek Microplate Reader (Synergy).

[12] = system: mice exposed to whole body irradiation; test: Protection against whole body irradiation induced mortality (30 days survival); type: in vivo, BALB/c mice; conditions: for Extent of protection offered to mice against radiation induced mortality: Oral; for protection against radiation induced mortality as monitored by 30 days survival: 100-1000 mg/kg b.w. (preferred 180-500) orally, table of expected outcome
Description: (§5) Experimental animals 8- to 9 weeks-old inbred BALB/c male mice, weighing approximately 20-25 g, were treated with CHL formulation at the dose of 500 mg/Kg bw given orally for 3 consecutive days followed by whole body irradiation [using a 60Co γ-irradiator at a dose rate of 1 Gy/min (BhabhatronI II, Panacea, India)] of 7.5 Gy in one group and 6 Gy radiation to another group. Treated groups were compared to untreated control and mice treated only with CHL formulation at the given dose and mice with whole body irradiation without the CHL formulation.
To assess the in vivo radio protective efficacy of chlorophyllin, mice were given three consecutive oral administrations of: CHL formulation 1 containing chlorophyllin (500-mg/kg bw) and penicillin (10-50 mg/kg+ streptomycin 20-80 mg/kgbw) or CHL formulation 2 containing chlorophyllin (500 mg/kg bw) and tetracycline (20-80 mg/kgbw) at 24 h interval and were exposed to 8 Gy dose of whole body irradiation (which is used as a supplement to surgery during radiotherapy of cancer patients) 2 h after the last injection. Formulation 3 is chlorophyllin alone given at a dose of 500 mg/kg bw for three consecutive days with a gap of 24 h between each dose.
Trials were conducted where chlorophyllin formulation ranging from 90 mg/kg bw to 2000 mg/kg body weight were administered to mice by oral gavage for three to four consecutive days at 24 h interval between doses. Alternatively, chlorophyllin was administered by intraperitoneal route (100 mg/kg body weight) for three consecutive days at 24 h interval. The mice were exposed to different doses of whole body irradiation (7.0 Gy, 7.5 Gy or 8 Gy) 2 h after last dose of chlorophyllin. The mice were monitored for changes in body weight and survival up to 30 days after WBI.

[13] = system: A549 human lung cancer cells; test: Clonogenic survival assay, A549; type: cell-based
Description: as §4

bone marrow cellularity = test: Bone marrow cellularity after 6 Gy whole body radiation; type: in vivo, BALB/c mice; conditions: 500 mg/Kg bw orally for 3 consecutive days
Description: as §5

[14] = chlorophyllin alone, 10-100 μM, 2 h

chlorophyllin
percentage of CD24-CD44+ cancer stem cells, combination with radiation ([1]; 50 μM): more effective than radiation or chlorophyllin alone | radiation induced increase in ALDH-positive cells ([1]; 100 μM): significantly attenuated | number of γ-H2AX foci versus radiation alone ([2]; 15 min after 4 Gy): did not have any effect | number of γ-H2AX foci versus radiation alone ([2]; 120 minutes after 4 Gy): significantly higher | toxicity (rats): did not show any toxicity | Extent of protection offered to mice against radiation induced mortality ([3]; 1 day): 30% | Extent of protection offered to mice against radiation induced mortality ([3]; 4 days): 70% | radiation toxicity in human breast cancer cells in vitro ([4]; 4 Gy or 8 Gy, 10-100 μM): enhanced the radiation toxicity | mitotic abnormalities (micronuclei, multinucleated giant cells) ([4]; chlorophyllin prior to 4 Gy or 8 Gy, 48 h): pattern of mitotic catastrophe | serum levels of G-CSF (G-CSF): maximum rise after 24 hrs | gamma radiation-induced injury to normal lung epithelia (cellular atypia) (normal lung epithelia): reduced | prevention of growth of human breast cancer cells in SCID mice ([5]; 500 mg/Kg bw orally for three days + 6 Gy focal irradiation): most effective | reduction in tumor after exposure to IR as compared to control mice bearing human xenograft ([5]; 6 Gy, 100-1000 mg/kg b.w. (preferred 180-500) orally, three consecutive days, without antibiotics, table of expected outcome): (50% | tumour volume ([5]; chlorophyllin alone, 500 mg/Kg bw orally for three consecutive days): significant decrease | percentage of CD24-CD44+ cancer stem cells, combination with radiation [6]: more effective than radiation or chlorophyllin alone | cell cycle effect in lineage negative cells in the bone marrow [7]: transient cell cycle arrest | number of colony forming units (CFUs) in bone marrow cells (bone marrow cells): significantly increased | serum half-life [8]: 2.363 h | sensitization to radiation induced loss of clonogenic capacity ([9]; MCF-7, 4 Gy, CHL 10, 20, 50 or 100 μM): significantly sensitized | colony forming ability of MCF-7 cells as compared to control [9, 14]: significantly decreased | number of γ-H2AX foci versus radiation alone ([10]; 15 min after 4 Gy): did not have any effect | number of γ-H2AX foci versus radiation alone ([10]; 120 minutes after 4 Gy): significantly higher | increase of hematopoietic stem cells versus control [11]: 2-3 fold | abundance of hematopoietic stem cells (Hoechst side population) ([11]; control 0.121%): 0.573% | toxicity (mice): did not show any toxicity | neutrophil frequency in the peripheral blood (Gr-1+ granulocytes; 500 mg/Kg bw orally for 3 days): increased neutrophil frequency | production of granulocytes (Gr-1+) in bone marrow (Gr-1+ granulocytes; 500 mg/Kg bw orally for 3 days): increase in the production of granulocytes | percent granulocytes, dose response (Gr-1+ granulocytes; doses up to 900 mg/kg body weight): increases up to 180 mg/kg and then plateaus up to 540 mg/kg body weight dose | radiation induced increase in intracellular ROS levels (MCF-7 cells; 4 Gy IR): attenuated | background levels of free radicals (MCF-7 cells; no radiation): able to scavenge | Extent of protection offered to mice against radiation induced mortality ([12]; 90 mg/kg bw, 3 days, 7.5 Gy): 66.6% | Extent of protection offered to mice against radiation induced mortality ([12]; 180 mg/kg bw, 3 days, 7.5 Gy): up to 100% | Extent of protection offered to mice against radiation induced mortality ([12]; 180 mg/kg bw, 3 days, 7.5 Gy, listed as Chlorophyllin): 100% | Extent of protection offered to mice against radiation induced mortality ([12]; 500 mg/kg bw, 3 days, 7.5 Gy): 70% | Extent of protection offered to mice against radiation induced mortality ([12]; 2000 mg/kg bw, 4 days, 7.0 Gy): 50% | protection against whole body irradiation induced mortality ([12]; 7.5 Gy, 500 mg/Kg bw orally for 3 consecutive days): significantly protected | protection against radiation induced mortality as monitored by 30 days survival ([12]; 7.5 Gy, three consecutive days, without antibiotics): 100% | rescue from WBI-induced mortality, 30 days survival ([12]; 8 Gy WBI, 500 mg/kg bw, three consecutive days, 80% of irradiated mice died within 17 days): rescued all the mice | protection against radiation induced mortality as monitored by 30 days survival ([12]; 8 Gy, three consecutive days, with antibiotics): 100% | Extent of protection offered to mice against radiation induced mortality ([12]; chlorophyllin 500 mg/kg bw, 3 days, 8.0 Gy): 60% | sensitization to radiation induced loss of clonogenic capacity ([13]; A549, 4 Gy, CHL 10, 20, 50 or 100 μM): able to sensitize | colony forming ability of A549 cells as compared to control [13, 14]: significantly decreased | recovery from radiation induced bone marrow aplasia (bone marrow cellularity): enhanced the recovery
